According to patent US6355640B1, “Pyrazolopyridine adenosine antagonists” (Fujisawa Pharmaceutical Co., Ltd., priority 1993, dated 2002):

| Compound | melting point |
| --- | --- |
| O=c1ccc(-c2c(-c3ccccc3)nn3ccccc23)nn1[C@H]1CC[C@@H](C(=O)O)CC1 [Example 47(1), cis-3-[2-(4-Carboxycyclohexyl)-3-oxo-2,3-dihydropyridazin-6-yl]-2-phenylpyrazolo[1,5-a]pyridine] | 296 to 298 °C |
| O=c1ccc(-c2c(-c3ccccc3)nn3ccccc23)nn1C1CCC2(CC1)OCCO2 [Example 21, 3-[2-(4,4-Ethylenedioxycyclohexyl)-3-oxo-2,3-dihydropyridazin-6-yl]-2-phenylpyrazolo[1,5-a]pyridine] | 189 to 190 °C |
| CCOC(=O)C[C@H]1CCCC[C@H]1n1nc(-c2c(-c3ccccc3)nn3ccccc23)ccc1=O (relative stereo) [Example 33(2), cis-3-[2-(2-Ethoxycarbonylmethylcyclohexyl)-3-oxo-2,3-dihydropyridazin-6-yl]-2-phenylpyrazolo[1,5-a]pyridine] | 151 to 152 °C |
| CC(C)(C)OC(=O)/C=C1\CCCCC1n1nc(-c2c(-c3ccccc3)nn3ccccc23)ccc1=O (stereo not drawn) [Example 95(3), (E)-3-[2-{2-(tert-Butoxycarbonylmethylene)-cyclohexyl}-3-oxo-2,3-dihydropyridazin-6-yl]-2-phenylpyrazolo[1,5-a]pyridine] | 110 to 116 °C |
| CCCn1c(-n2nc(-c3c(-c4ccccc4)nn4ccccc34)ccc2=O)cc(=O)n(CCC)c1=O [Example 27, 3-[2-(1,3-Dipropyl-2,4-dioxo-1,2,3,4-tetrahydropyrimidin-6-yl)-3-oxo-2,3-dihydropyridazin-6-yl]-2-phenylpyrazolo[1,5-a]pyridine] | 155.3 °C |
| O=C(O)C[C@H]1CC[C@H](n2nc(-c3c(-c4ccccc4)nn4ccccc34)ccc2=O)C1 (relative stereo) [Example 40, trans-3-[2-(3-Carboxymethylcyclopentyl)-3-oxo-2,3-dihydropyridazin-6-yl]-2-phenylpyrazolo[1,5-a]pyridine] | 212 to 213 °C |
| CC(C)(C)OC(=O)/C=C1/CCCCC1n1nc(-c2c(-c3ccccc3)nn3ccccc23)ccc1=O (stereo not drawn) [Example 98, (Z)-3-[2-{2-(tert-butoxycarbonyl-methylene)cyclohexyl}-3-oxo-2,3-dihydropyridazin-6-yl]-2-phenylpyrazolo[1,5-a]pyridine] | 171 to 172 °C |

Other lines, results leading:

| melting point | Compound |
| --- | --- |
| 145 to 150 °C | O=C(O)CN1CCCC(n2nc(-c3c(-c4ccccc4)nn4ccccc34)ccc2=O)C1=O (stereo not drawn) [Example 117, 3-[2-(1-Carboxymethyl-2-oxopiperidin-3-yl)-3-oxo-2,3-dihydropyridazin-6-yl]-2-phenylpyrazolo[1,5-a]pyridine] |
| 85 to 87 °C | CON=C1CCCCC1n1nc(-c2c(-c3ccccc3)nn3ccccc23)ccc1=O (stereo not drawn) [Example 90, 3-[2-{2-(Methoxyimino)cyclohexyl}-3-oxo-2,3-dihydropyridazin-6-yl]-2-phenylpyrazolo[1,5-a]pyridine] |
| 229 to 230 °C (dec.) | C=C1CCCCC1n1nc(-c2c(-c3ccccc3)nn3ccccc23)ccc1=O (stereo not drawn) [Example 93, 3-[2-(2-methylenecyclohexyl)-3-oxo-2,3-dihydropyridazin-6-yl]-2-phenylpyrazolo[1,5-a]pyridine] |
| 175 to 176 °C | COC(=O)COc1cccc2c1CCC(n1nc(-c3c(-c4ccccc4)nn4ccccc34)ccc1=O)C2=O (stereo not drawn) [Example 118, 3-[2-(1-Methoxycarbonylmethoxy-5-oxo-5,6,7,8-tetrahydro-6-naphthyl)-3-oxo-2,3-dihydropyridazin-6-yl]-2-phenylpyrazolo[1,5-a]pyridine] |
| 225 to 227 °C | O=C(O)COc1cccc2c1CCC(n1nc(-c3c(-c4ccccc4)nn4ccccc34)ccc1=O)C2=O (stereo not drawn) [Example 119, 3-[2-(1-Carboxymethoxy-5-oxo-5,6,7,8-tetrahydro-6-naphthyl)-3-oxo-2,3-dihydropyridazin-6-yl]-2-phenylpyrazolo[1,5-a]pyridine] |
